The values that follow are results of earlier work, collected in patent US20220175673A1, “SURGICAL DEVICE” (Saint Anthony Biomedical, LLC, priority 2017, published 2022).

This data set deals with Bacteroides, Propionibacterium, Clostridium deficile, Selenomonas. Conditions: some strains.

As for `[H]/N=C(\N/C(=N/[H])NCCCCCCNC(=N)NC(=N)Nc1ccc(Cl)cc1)Nc1ccc(Cl)cc1` [Chlorhexidine, chlorhexidine], the activity entry is on record as “active against some strains”.
